Data reported in ChEMBL document CHEMBL5316313, “Discovery of Novel 3-Phenylpiperidine Derivatives Targeting the β-Catenin/B-Cell Lymphoma 9 Interaction as a Single Agent and in Combination with the Anti-PD-1 Antibody for the Treatment of Colorectal Cancer” (J Med Chem, 2023).

Assays:
[1] = target: T1, beta-catenin-B-cell lymphoma 9 protein complex (Homo sapiens, UniProt P35222); assay: Inhibition of N-terminal His6-tagged full-length recombinant beta-catenin (1 to 781 residues) (unknown origin) expressed in Escherichia coli BL21 DE3/N-terminal FAM tagged BCL9 HD2(350 to 375 residues) (unknown origin) protein-protein interaction assessed as inhibition constant incubated for 3 hrs by competitive fluorescence polarization assay
T1 sequence (P35222 whole entry): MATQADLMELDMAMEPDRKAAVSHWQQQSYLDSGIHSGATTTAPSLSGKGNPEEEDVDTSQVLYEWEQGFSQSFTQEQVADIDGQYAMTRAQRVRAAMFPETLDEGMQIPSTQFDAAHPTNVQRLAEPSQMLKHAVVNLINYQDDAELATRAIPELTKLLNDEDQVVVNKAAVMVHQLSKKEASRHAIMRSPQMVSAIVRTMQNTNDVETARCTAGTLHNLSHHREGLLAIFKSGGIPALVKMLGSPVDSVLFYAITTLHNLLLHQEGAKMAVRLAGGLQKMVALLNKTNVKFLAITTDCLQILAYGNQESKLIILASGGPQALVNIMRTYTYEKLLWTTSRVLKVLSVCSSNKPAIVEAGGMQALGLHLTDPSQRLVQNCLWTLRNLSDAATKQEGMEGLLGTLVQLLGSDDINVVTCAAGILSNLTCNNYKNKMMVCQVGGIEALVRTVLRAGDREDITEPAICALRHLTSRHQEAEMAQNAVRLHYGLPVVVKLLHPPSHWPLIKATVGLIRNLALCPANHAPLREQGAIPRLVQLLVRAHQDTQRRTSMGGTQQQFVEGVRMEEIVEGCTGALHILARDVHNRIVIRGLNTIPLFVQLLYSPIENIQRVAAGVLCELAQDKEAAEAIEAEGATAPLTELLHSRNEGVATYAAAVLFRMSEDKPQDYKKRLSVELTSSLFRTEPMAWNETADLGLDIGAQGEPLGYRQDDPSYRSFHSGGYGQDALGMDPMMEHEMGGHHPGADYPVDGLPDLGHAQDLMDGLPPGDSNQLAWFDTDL
T1 sequence (O00512 whole entry): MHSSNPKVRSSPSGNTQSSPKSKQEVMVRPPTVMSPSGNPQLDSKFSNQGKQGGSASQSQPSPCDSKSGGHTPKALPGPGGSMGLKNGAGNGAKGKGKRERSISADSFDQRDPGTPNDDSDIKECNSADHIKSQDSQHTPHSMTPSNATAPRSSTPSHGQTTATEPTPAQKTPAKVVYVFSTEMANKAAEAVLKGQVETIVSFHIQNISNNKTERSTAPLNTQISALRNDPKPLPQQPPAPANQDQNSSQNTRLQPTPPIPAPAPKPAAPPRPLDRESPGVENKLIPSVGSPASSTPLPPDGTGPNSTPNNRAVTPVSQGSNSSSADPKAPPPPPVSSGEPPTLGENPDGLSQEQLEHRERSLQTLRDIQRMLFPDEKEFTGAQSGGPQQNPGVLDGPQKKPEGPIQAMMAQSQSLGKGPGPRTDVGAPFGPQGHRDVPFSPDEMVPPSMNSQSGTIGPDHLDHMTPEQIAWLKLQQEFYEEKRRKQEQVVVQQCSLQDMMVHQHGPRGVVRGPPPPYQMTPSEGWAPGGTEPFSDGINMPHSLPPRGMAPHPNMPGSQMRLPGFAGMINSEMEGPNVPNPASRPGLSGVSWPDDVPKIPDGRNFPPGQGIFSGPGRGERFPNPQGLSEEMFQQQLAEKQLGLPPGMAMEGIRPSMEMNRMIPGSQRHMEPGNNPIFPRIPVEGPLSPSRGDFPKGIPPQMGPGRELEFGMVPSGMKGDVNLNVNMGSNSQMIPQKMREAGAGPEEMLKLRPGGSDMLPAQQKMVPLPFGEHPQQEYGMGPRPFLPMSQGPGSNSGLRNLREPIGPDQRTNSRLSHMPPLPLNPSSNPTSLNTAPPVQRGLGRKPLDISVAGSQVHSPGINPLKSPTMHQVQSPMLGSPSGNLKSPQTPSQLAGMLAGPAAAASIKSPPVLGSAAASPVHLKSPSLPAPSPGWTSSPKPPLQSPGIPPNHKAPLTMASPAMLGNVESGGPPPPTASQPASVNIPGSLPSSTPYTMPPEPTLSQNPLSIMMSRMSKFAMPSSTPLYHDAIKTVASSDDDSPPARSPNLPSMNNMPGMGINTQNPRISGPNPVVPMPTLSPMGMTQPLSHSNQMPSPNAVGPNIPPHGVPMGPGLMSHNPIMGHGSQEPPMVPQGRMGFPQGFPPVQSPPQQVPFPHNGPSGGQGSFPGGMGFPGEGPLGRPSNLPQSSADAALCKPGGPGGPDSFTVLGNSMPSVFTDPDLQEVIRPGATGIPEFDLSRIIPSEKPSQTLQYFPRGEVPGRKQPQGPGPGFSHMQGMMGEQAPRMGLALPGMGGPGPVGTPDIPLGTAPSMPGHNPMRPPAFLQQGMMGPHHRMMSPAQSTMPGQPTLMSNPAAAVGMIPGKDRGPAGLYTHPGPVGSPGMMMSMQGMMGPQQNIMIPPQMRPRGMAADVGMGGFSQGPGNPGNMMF

[2] = target: T1, beta-catenin-B-cell lymphoma 9 protein complex; assay: Inhibition of beta-catenin/BCL9 protein-protein interaction in Wnt-dependent human HCT-116 cells assessed as reduction in Axin2 expression level by qRT-PCR assay; assay type: cell-based
[3] = Microsomal stability in mouse liver microsomes assessed as half life at […] and measured upto 60 mins by LC-MS/MS analysis; assay type: ADME, Microsome
[4] = Microsomal stability in mouse liver microsomes assessed as intrinsic clearance at […] and measured upto 60 mins by LC-MS/MS analysis; assay type: ADME, Microsome; conditions: read-out: CLH
[5] = Microsomal stability in human liver microsomes assessed as half life at […] and measured upto 60 mins by LC-MS/MS analysis; assay type: ADME, Microsome
[6] = Microsomal stability in human liver microsomes assessed as intrinsic clearance at […] and measured upto 60 mins by LC-MS/MS analysis; assay type: ADME, Microsome; conditions: read-out: CLH
[7] = target: T1, beta-catenin-B-cell lymphoma 9 protein complex; assay: Inhibition of full-length recombinant beta-catenin (1 to 781 residues) (unknown origin)/N-terminal biotinylated BCL9-HD2 (unknown origin) protein-protein interaction assessed as inhibition constant incubated for 90 mins by AlphaScreen assay; assay type: protein-complex assay
[8] = target: T1, beta-catenin-B-cell lymphoma 9 protein complex; assay: Inhibition of FLAG tagged human beta-catenin/FLAG-tagged human BCL9 HD2 (343 to 396 residues) expressed in Escherichia coli BL21 protein-protein interaction assessed as inhibition constant by ELISA
[9] = target: T1, beta-catenin-B-cell lymphoma 9 protein complex; assay: Inhibition of beta-catenin (unknown origin)/human BCL9 (350 to 375 residues) protein-protein interaction assessed as inhibition constant by AlphaScreen assay; assay type: protein-complex assay

| Structure (SMILES) | IC50 [1] | IC50 [2] | further results |
| --- | --- | --- | --- |
| Cc1ccc(-c2cccc(S(=O)(=O)N3CCCC(c4cccc(OC(C)(C)C(=O)O)c4)C3)c2)cc1C (stereo not given) | 4.63 µM |  |  |
| CC(C)(Oc1cccc(C2CCCN(S(=O)(=O)c3cccc(-c4ccc5ccsc5c4)c3)C2)c1)C(=O)O (stereo not given) | 3.27 µM | 3.58 µM |  |
| CC(C)(Oc1cccc(C2CCCN(C(=O)OCc3ccc(C(C)(C)C)cc3)C2)c1)C(=O)O (stereo not given) | > 10 µM |  |  |
| CC(C)c1cccc(-c2cccc(S(=O)(=O)N3CCCC(c4cccc(OC(C)(C)C(=O)O)c4)C3)c2)c1 (stereo not given) | 4.27 µM |  |  |
| CC(C)c1ccc(/C=C/C(=O)N2CCCC(c3cccc(OC(C)(C)C(=O)O)c3)C2)cc1 (stereo not given) | 5.39 µM |  |  |
| CC(C)c1ccc(-c2cccc(S(=O)(=O)N3CCCC(c4cccc(OC(C)(C)C(=O)NCc5ccccc5)c4)C3)c2)cc1 (stereo not given) | 3.76 µM | 10 µM |  |
| CC(=O)Nc1ccc(S(=O)(=O)NC(=O)C(C)(C)Oc2cccc(C3CCCN(S(=O)(=O)c4cccc(-c5ccc(C(C)C)cc5)c4)C3)c2)cc1 (stereo not given) | 0.89 µM | 2.93 µM |  |
| CC(C)(Oc1cccc(C2CCCN(C(=O)OCc3ccc4ccccc4c3)C2)c1)C(=O)O (stereo not given) | > 10 µM |  |  |
| CC(C)(Oc1cccc(C2CCCN(S(=O)(=O)c3cccc(-c4cccs4)c3)C2)c1)C(=O)O (stereo not given) | > 10 µM |  |  |
| CC(C)c1ccc(-c2cccc(S(=O)(=O)N3CCC[C@H](c4cccc(OC(C)(C)C(=O)NS(=O)(=O)c5ccc(C(F)(F)F)cc5)c4)C3)c2)cc1 |  |  | half-life [3]: 37.7 min; microsomal CLint [4]: 36.8 µL/min/mg; half-life [5]: 21.8 min; microsomal CLint [6]: 63.6 µL/min/mg |
| CC(C)(Oc1cccc(C2CCCN(C(=O)OCc3ccc4ncccc4c3)C2)c1)C(=O)O (stereo not given) | > 10 µM |  |  |
| COc1ccc(COC(=O)N2CCCC(c3cccc(OC(C)(C)C(=O)O)c3)C2)cc1 (stereo not given) | 5.27 µM |  |  |
| CC(C)(Oc1cccc(C2CCCN(S(=O)(=O)c3cccc(-c4ccsc4)c3)C2)c1)C(=O)O (stereo not given) | 4 µM |  |  |
| Cc1ccc(COC(=O)N2CCCC(c3cccc(OC(C)(C)C(=O)O)c3)C2)cc1C (stereo not given) | 4.2 µM |  |  |
| CC(C)(Oc1cccc(C2CCCN(S(=O)(=O)c3cccc(-c4ccc(C(C)(C)C)cc4)c3)C2)c1)C(=O)O (stereo not given) | 3.14 µM | 1.31 µM |  |
| COc1ccc(S(=O)(=O)NC(=O)C(C)(C)Oc2cccc(C3CCCN(S(=O)(=O)c4cccc(-c5ccc(C(C)C)cc5)c4)C3)c2)cc1 (stereo not given) | 4.47 µM |  |  |
| CC(C)c1ccc(-c2cccc(S(=O)(=O)N3CCCC(c4cccc(OC(C)(C)C(=O)NS(=O)(=O)c5cccc(C#N)c5)c4)C3)c2)cc1 (stereo not given) | 1.27 µM | 1.13 µM |  |
| CC1CCCN(CCCNC(=O)C2=Cc3sc4c(c3CS2)CCCC4)C1 (stereo not given) |  |  | Ki [7]: 9 µM |
| CC(C)c1ccc(-c2cccc(C(=O)N3CCCC(c4cccc(OC(C)(C)C(=O)O)c4)C3)c2)cc1 (stereo not given) | > 10 µM |  |  |
| CC(C)(Oc1cccc(C2CCCN(C(=O)OCc3ccc(F)c(F)c3)C2)c1)C(=O)O (stereo not given) | 4.32 µM |  |  |

| Structure (SMILES) | IC50 [1] | IC50 [2] | further results |
| --- | --- | --- | --- |
| CC(C)c1ccc(CNC(=O)N2CCCC(c3cccc(OC(C)(C)C(=O)O)c3)C2)cc1 (stereo not given) | 8.62 µM |  |  |
| CC(C)c1ccc(-c2cccc(S(=O)(=O)N3CCCC(c4cccc(OC(C)(C)C(=O)NS(=O)(=O)c5ccc(C(F)(F)F)cc5Cl)c4)C3)c2)cc1 (stereo not given) | 1.18 µM | 1.36 µM |  |
| CC(C)(Oc1cccc(C2CCCN(C(=O)OCc3ccc(F)cc3F)C2)c1)C(=O)O (stereo not given) | 5.19 µM |  |  |
| COc1ccc(COC(=O)N2CCCC(c3cccc(OC(C)(C)C(=O)O)c3)C2)cc1OC (stereo not given) | 6.8 µM |  |  |
| CC(C)c1ccc(-c2cccc(S(=O)(=O)N3CCCC(c4cccc(OC(C)(C)C(=O)NS(=O)(=O)c5cccc(C(F)(F)F)c5)c4)C3)c2)cc1 (stereo not given) | 2.47 µM | 1.33 µM |  |
| CC(C)c1ccc(-c2cccc(S(=O)(=O)N3CCC[C@@H](c4cccc(OC(C)(C)C(=O)NS(=O)(=O)c5ccc(C(F)(F)F)cc5)c4)C3)c2)cc1 |  |  | half-life [3]: 14.8 min; microsomal CLint [4]: 93.4 µL/min/mg; half-life [5]: 69.3 min; microsomal CLint [6]: 20 µL/min/mg |
| CC(C)c1cc2c(c(O)c1O)[C@@]1(C(=O)O)CCCC(C)(C)[C@@H]1CC2 [CARNOSIC ACID] |  |  | Ki [8]: 3.3 µM |
| CC(C)(Oc1cccc(C2CCCN(S(=O)(=O)c3cccc(-c4ccccc4)c3)C2)c1)C(=O)O (stereo not given) | 8.3 µM |  |  |
| Cc1ccc(COC(=O)N2CCCC(c3cccc(OC(C)(C)C(=O)O)c3)C2)cc1 (stereo not given) | 6.7 µM |  |  |
| COC(=O)C(C)(C)Oc1cccc(C2CCCN(C(=O)OCc3ccc(C(C)C)cc3)C2)c1 (stereo not given) | 5.21 µM |  |  |
| CC(C)c1ccc(-c2cccc(S(=O)(=O)N3CCCC(c4cccc(OC(C)(C)C(=O)O)c4)C3)c2)cc1 (stereo not given) | 1.58 µM | 2.26 µM |  |
| CC(C)c1ccc(-c2cccc(S(=O)(=O)N3CCCC(c4cccc(OC(C)(C)C(=O)NS(=O)(=O)c5ccccc5)c4)C3)c2)cc1 (stereo not given) | 1.18 µM | 1.1 µM | half-life [3]: 19.8 min; microsomal CLint [4]: 70 µL/min/mg; half-life [5]: 8.67 min; microsomal CLint [6]: 160 µL/min/mg |
| CC(C)(Oc1cccc(C2CCCN(S(=O)(=O)c3cccc(-c4ccc(F)c(F)c4)c3)C2)c1)C(=O)O (stereo not given) | > 10 µM |  |  |
| CC(C)(Oc1cccc(C2CCCN(S(=O)(=O)c3cccc(C4CCCCC4)c3)C2)c1)C(=O)O (stereo not given) | > 10 µM |  |  |
| O=C(Nc1ccc(O[C@@H]2CCNC2)c(-c2ccc(F)cc2)c1)c1ccc(O[C@H]2CCNC2)c(-c2ccc(F)c(F)c2)c1 |  |  | Ki [9]: 2.1 µM |
| CC(C)c1ccc(-c2cccc(S(=O)(=O)N3CCCC(c4cccc(OC(C)(C)C(=O)NS(=O)(=O)c5cccs5)c4)C3)c2)cc1 (stereo not given) |  |  | half-life [3]: 5.75 min; microsomal CLint [4]: 241 µL/min/mg; half-life [5]: 6.17 min; microsomal CLint [6]: 225 µL/min/mg |
| CC(C)c1ccc(COC(=O)N2CCC(c3cccc(OC(C)(C)C(=O)O)c3)CC2)cc1 | 4.86 µM |  |  |
| CC(C)c1ccc(-c2cccc(S(=O)(=O)N3CCCC(c4cccc(OC(C)(C)C(=O)NS(=O)(=O)c5ccc(OC(F)(F)F)cc5)c4)C3)c2)cc1 (stereo not given) | 1 µM | 1.19 µM |  |
| CC(C)(Oc1cccc(C2CCCN(C(=O)OCC3CCCCC3)C2)c1)C(=O)O (stereo not given) | 3.9 µM | > 10 µM |  |
| CC(C)c1ccc(-c2cccc(S(=O)(=O)N3CCCC(c4cccc(OC(C)(C)C(=O)NS(=O)(=O)c5ccc(C#N)cc5)c4)C3)c2)cc1 (stereo not given) | 1.86 µM | 1.49 µM |  |
